Measured values: US20090117123A1, “IMMU[…] HPV E6 AND E7 PROTEINS” (National Health Research Institutes, priority 2007, published 2009)

Tests used:
[1] = test system: splenocytes from HLA-A11/K^b transgenic mice; assay: IFN-γ ELISPOT of peptide-stimulated splenocytes from DNA plasmid-immunized mice; assay type: cell-based, mouse; conditions: splenocytes of mice immunized i.m. with plasmid pE3/19K/HPV18E6E7, stimulated with the peptide; FIG. 7A
Method: (§1) A 96-well plate, having nitrocellulose membrane inserted in each well, was coated with […] anti-IFN-γ antibody (clone MAB1-D1K, 10 μg/ml in 1×PBS, from Mabtech, Macka, Sweden) and was incubated at 4° C. for 24 hours. The plate was washed four times with PBS, and then incubated with […] per well RPMI medium containing 10% fetal bovine serum (FBS) for 1-3 hours. Next, splenocytes were suspended in RPMI containing 10% FBS and 1×10^5 or 5×10^5 splennocytes (200 μl) were added to each well with or without A11VVY. The ELISPOT assay was performed in triplicate wells for each experimental condition. The plate was incubated in an incubator supplied with 5% CO2 at 37° C. for 2 hours. After being washed for 2-3 times, the plate was incubated with avidin-peroxidase complex reagent for one hour at room temperature and then washed three times with 0.05% (w/v) Tween 20 in PBS and three times with PBS. 100 μl aminoethylcarbazole staining solution were then added to each well to develop stained spots. After 4-6 minutes, the plate was washed with running tap water to stop the reaction of developing the spots, which were counted by a computational image analysis.
Plasmid pE3/19K/HPV18E6E7 was constructed following the conventional recombinant technology. This plasmid contains the E3/19K leader sequence and a nucleotide sequence encoding a fusion protein composed of the H-2K^b-restricted CTL epitope SII (derived from ovalbumin) and HPV18E6E7 polypeptide, which includes epitopes VVY, SIP, and ATL.
(§2) Seven to ten days after the second immunization, the mice were sacrificed and their splenocytes collected.
The splenocytes werestimulated with peptide VVY, SII, SIP, ATL, or a control peptide and the levels of IFN-γ secreted thereby were determined with the Enzyme-linked immunospot (ELISPOT) assay described in Example 1 above.

[2] = test system: ^51Cr-labeled T2/HLA-A11 cells; assay: Chromium release assay with splenocytes from peptide-immunized mice; assay type: in vivo, mouse; conditions: HLA-A11 transgenic mice immunized twice with the peptide; FIG. 6B
Method: (§3) Next, the CTL effect induced by peptide VVY was examined as follows. HLA-A11 transgenic mice were immunized twice with peptide VVY, SIP, or ATL, all of which were derived from HPV 18, following the procedures described above in this Example. Splenocytes (2×10^6/ml) isolated from the immunized mice were cultured with 10 μg/ml of either VVY or A11-SCC and 10 U/ml rIL-2 for at 37+ C. for 5 days. A standard chromium release assay was performed to determine cytolytic activity. In brief, T2/HLA-A11 cells were labeled with 100 μCi of ^51Cr (PerkinElmer, Waltham, Mass., USA) for 1.5 hrs at 37° C. and washed afterwards three times with cold RPMI. The cultured splenocytes, used as effector cells, were mixed with 5×10^3 the ^51Cr-labeled T2/HLA-A11 cells at various ratios in triplicate wells in a U-bottom 96-well plate (Nunc, Rochester, N.Y., USA). After 4-5 hrs incubation, supernatants from each well were collected and the radioactivity contained therein was measured using a γ-counter (PARKARD, Ramsey, Mich., USA). The specific lysis rate was determined following the formula: Specific lysis rate (%)=(Samplecpm−Spontaneous releasecpm)/(Maximum releasecpm−Spontaneous releasecpm)%.

[3] = test system: T cells of HLA-A24 transgenic mice; assay: IFN-γ secretion of splenocytes from peptide-immunized HLA-A24 transgenic mice; assay type: in vivo, mouse; conditions: HLA-A24 transgenic mice immunized with peptide; FIG. 5B
Method: FIG. 5B is a diagram showing IFN-γ secretion of splenocytes obtained from HLA-A24 transgenic mice immunized with peptide […] (A24 CYE, SEQ ID NO:5) or a control peptide.
as §1

[4] = test system: HLA A24 heavy chain and β2-microglobulin; assay: MHC-peptide complex formation assay (ELISA), HLA A24; assay type: binding
Method: The HLA A24 heavy chain and β2-microglobulin were expressed and purified following the method described above. These proteins were incubated with synthetic peptides containing potential CTL-epitopes identified by the computational programs mentioned in Example 1. The formation of HLA A24-β2-peptide complexes was determined by the ELISA assay also described in Example 1 above.

[5] = test system: ^51Cr-labeled T2/HLA-A11 cells; assay: Chromium-release assay, peptide-specific CTL effects after DNA plasmid immunization; assay type: cell-based, mouse; conditions: mice immunized with plasmid pE3/19K/HPV18E6E7; FIG. 7B
Method: as §3, §2
Next, peptide-specific CTL effects were examined by the chromium-release assay described in Example 4 above.

[6] = test system: CD8^+ T cells of C57BL/6-HLA-A11 transgenic mice; assay: HLA-A11-peptide tetramer staining of CD8+ T cells from peptide-immunized mice; assay type: in vivo, mouse; conditions: HLA-A11 transgenic mice immunized s.c. twice; splenocytes cultured 5 days with peptide and rIL-2; FIG. 6A
Method: C57BL/6-HLA-A11 transgenic mice were immunized s.c. twice with peptide VVY (SEQ ID NO:1) or control peptide SSC (SEQ ID NO:12) together with a T helper cell epitope […] (SEQ ID NO:17), and incomplete adjuvant ISA-51. Seven days after the second immunization, splenocytes were harvested from the immunized mice, cultivated in vitro in the presence of peptide VVY or SSC (10 μg/ml) and rIL-2 (10 U/ml) for five days. The cells were then double stained with HLA-A11-peptide tetramer VVY-tet-PE or SCC-tet-PE and a FITC-conjugated anti-CD8 antibody to detect CD8^+ T cells that bind to either VVY or SSC.
The tetramers were prepared as follows. Purified HLA-A11 heavy chains and β2-microglobulins were refolded in the presence of VVY or SSC in a refolding buffer containing 100 mM Tris-HCl (pH 8), 400 mM L-arginine, 2 mM EDTA, 5 mM reduced glutathione, 0.5 mM oxidized glutathione for 48 hrs at 4° C. […]
The tetramers thus prepared were incubated with the peptide-challenged T cells in a FACS staining buffer for 20 min at room temperature and a FITC conjugated anti-CD8 antibody was then added to the incubation system and kept on ice for 20 min. The stained cells were analyzed by flow cytometry (FACScalibur BD Bioscience, Calif., USA) in the presence of 1 μg/ml of propidium iodide (Sigma, Mo., USA) to exclude dead cells.

[7] = test system: splenocytes from C57BL/6-HLA-A11 transgenic mouse; assay: IFN-γ ELISPOT of splenocytes from peptide-immunized HLA-A11 transgenic mouse; assay type: in vivo; conditions: HLA-A11 transgenic mouse immunized s.c. with peptide, ISA-51 and T helper epitope; FIG. 5A
Method: C57BL/6-HLA-A11 transgenic mouse, derived from the Animal Technology Institute in Taiwan, was used in this study. 50 μg synthetic peptides having the amino acid sequence of […] (A11VVY; SEQ ID NO:1) were formulated with incomplete adjuvant ISA-51 in the presence of a peptide […] (SEQ ID NO:17), which contains a T helper cell epitope derived from hepatitis B virus. The composition thus formed was injected subcutaneously into the HLA-A11 transgenic mouse two times every two weeks. Seven days after the final injection, splenotyes from the immunized mouse were isolated and cultured in a medium containing A11VVY. The level of IFN-γ secreted to the medium was determined by Enzyme-linked immunospot (ELISPOT) as described below.
A 96-well plate, having nitrocellulose membrane inserted in each well, was coated with […] anti-IFN-γ antibody (clone MAB1-D1K, 10 μg/ml in 1×PBS, from Mabtech, Macka, Sweden) and was incubated at 4° C. for 24 hours. The plate was washed four times with PBS, and then incubated with […] per well RPMI medium containing 10% fetal bovine serum (FBS) for 1-3 hours. […] After 4-6 minutes, the plate was washed with running tap water to stop the reaction of developing the spots, which were counted by a computational image analysis.

[8] = biological target: HLA A11 heavy chain (His-Tag fusion) with β2-microglobulin (human); assay: MHC-peptide complex formation assay, ELISA; relative to positive and negative control O.D.

Q: “ATLQDIVLH (listed as Human papillomavirus) [peptide derived from HPV 18]” was tested. Which “induction of IFN-γ secretion” value [1] did it give?
A: not

Q: And the “CTL effects (specific lysis)” value [2]?
A: not

Q: For “CYEQLGDSS (listed as Human papillomavirus) [24-32 of HPV 52 E7]”, which “IFN-γ secretion by peptide-specific T cells” value [3] is on record?
A: incuded A24CYE-specific T cells to secrete IFN-γ

Q: What about the “HLA A24 restriction (HLA A24-β2-peptide complex formation)” value [4] of the same substance?
A: HLA A24 restricted epitopes

Q: Which “peptide-specific CTL effects” value [5] does the source give for “RAHYNIVTF (listed as Human papillomavirus) [control peptide]” here?
A: not

Q: What about the “induction of IFN-γ secretion” value [1] of the same substance?
A: not

Q: Which results are given for SIINFEKL (listed as Mus musculus)?
A: peptide-specific CTL effects [5]: not; induction of IFN-γ secretion [1]: induced IFN-γ secretion

Q: What does the source list for “SIPHAACHK (listed as Human papillomavirus) [peptide derived from HPV 18]”?
A: induction of IFN-γ secretion [1]: not; CTL effects (specific lysis) [2]: not

Q: With “SSCSSCPLSK (listed as Human herpesvirus) [A11-SCC, positive control A11-restricted peptide derived from EBV LMP2 protein]” as the substance, how does the “induction of VVY-specific CD8^+ T cells (tetramer staining)” value [6] read?
A: did not show this effect

Q: How did the “HLA A24 restriction (HLA A24-β2-peptide complex formation)” value [4] turn out when “VDLLCHEQL (listed as Human papillomavirus) [23-31 of HPV 18 E7]” was run?
A: HLA A24 restricted epitopes

Q: What does the source list for “VVYRDSIPH (listed as Human papillomavirus) [54-62 of HPV 18 E6]”?
A: induction of VVY-specific CD8^+ T cells (tetramer staining) [6]: induced VVY-specific CD8^+ T cells; peptide-specific CTL effects [5]: induced CTL effects; IFN-γ secreting splenocytes [7]: large amount; induction of IFN-γ secretion [1]: induced IFN-γ secretion; CTL effects (specific lysis) [2]: induced CTL effects

Q: For “WLSLLVPFV [A2-restricted peptide, used as control peptide for immunization]”, which IFN-γ secreting splenocytes [7] is on record?
A: little

Q: For … (54-62 of HPV 18 E6) (peptide), which relative binding % [8] is on record?
A: 30%

Q: Which relative binding % [8] does the source give for … (64-72 of HPV 52 E6) (peptide) here?
A: 30%

Q: For … (94-102 of HPV 58 E6) (peptide), which relative binding % [8] is on record?
A: 30%
